Columns and labels:
Conditions in all cases: 72 h
Calu-3 [1] = assay: drug sensitivity score (DSS) for viability; higher = more toxic; extreme values may be limits of the assay
U2OS [2] = assay: as above
Vero E6 [3] = assay: as above
HepG2 [4] = assay: as above
U2OS [5] = assay: relative viability EC50 (midpoint between 100% and the lowest measured viability); higher = less toxic
Vero E6 [6] = assay: as above
HepG2 [7] = assay: as above
Caco-2 [8] = assay: drug sensitivity score (DSS) for viability; higher = more toxic; extreme values may be limits of the assay
Calu-3 [9] = assay: cell viability relative to DMSO; higher = less toxic
U2OS [10] = assay: as above
Caco-2 [11] = assay: as above
Vero E6 [12] = assay: as above
HepG2 [13] = assay: as above
Caco-2 [14] = assay: relative viability EC50 (midpoint between 100% and the lowest measured viability); higher = less toxic

Which results are given for `COc1cc(NC(=O)Nc2cccc(CNC(=O)O[C@H]3CCOC3)c2)ccc1-c1cnco1` [merimepodib]?
drug sensitivity score (Calu-3 [1]): 3.6; drug sensitivity score (U2OS [2]): 3.7; drug sensitivity score (Vero E6 [3]): 0; drug sensitivity score (HepG2 [4]): 4.3

Which results are given for `Cc1ccc(-c2nn(C(C)(C)CNC(=O)c3ncccc3C)c3ncnc(N)c23)cc1` [WEHI-345-analog]?
relative viability EC50 (U2OS [5]): 3.51 µM; relative viability EC50 (Vero E6 [6]): 2.62 µM; relative viability EC50 (HepG2 [7]): 2.49 µM; drug sensitivity score (Calu-3 [1]): 2.8; drug sensitivity score (U2OS [2]): 3; drug sensitivity score (Caco-2 [8]): 2; drug sensitivity score (Vero E6 [3]): 4.1; drug sensitivity score (HepG2 [4]): 4.5; cell viability (Calu-3 [9]; 1 nM): 99.6%; cell viability (Calu-3 [9]; 10 nM): 110%; cell viability (Calu-3 [9]; 100 nM): 86%; cell viability (Calu-3 [9]; 1000 nM): 97.8%; cell viability (Calu-3 [9]; 10000 nM): 52.2%; cell viability (U2OS [10]; 1 nM): 98.3%; cell viability (U2OS [10]; 10 nM): 108%; cell viability (U2OS [10]; 100 nM): 94.3%; cell viability (U2OS [10]; 1000 nM): 104%; cell viability (U2OS [10]; 10000 nM): 38.4%; cell viability (Caco-2 [11]; 1 nM): 96.3%; cell viability (Caco-2 [11]; 10 nM): 100%; cell viability (Caco-2 [11]; 100 nM): 95.5%; cell viability (Caco-2 [11]; 1000 nM): 101%; cell viability (Caco-2 [11]; 10000 nM): 58.9%; cell viability (Vero E6 [12]; 1 nM): 100%; cell viability (Vero E6 [12]; 10 nM): 97.7%; cell viability (Vero E6 [12]; 100 nM): 99.8%; cell viability (Vero E6 [12]; 1000 nM): 95.7%; cell viability (Vero E6 [12]; 10000 nM): 37.2%; cell viability (HepG2 [13]; 1 nM): 109%; cell viability (HepG2 [13]; 10 nM): 97.5%; cell viability (HepG2 [13]; 100 nM): 99.7%; cell viability (HepG2 [13]; 1000 nM): 94.6%; cell viability (HepG2 [13]; 10000 nM): 34.2%

What does the source list for `O=C(NOCC1CC1)c1ccc(F)c(F)c1Nc1ccc(I)cc1Cl`?
relative viability EC50 (U2OS [5]): > 10 µM; relative viability EC50 (HepG2 [7]): 0.277 µM; drug sensitivity score (U2OS [2]): 0.4; drug sensitivity score (Caco-2 [8]): 5.1; drug sensitivity score (Vero E6 [3]): 7.9; drug sensitivity score (HepG2 [4]): 14.6; cell viability (U2OS [10]; 1 nM): 101%; cell viability (U2OS [10]; 10 nM): 97.1%; cell viability (U2OS [10]; 100 nM): 94.9%; cell viability (U2OS [10]; 1000 nM): 91.4%; cell viability (U2OS [10]; 10000 nM): 85.3%; cell viability (Caco-2 [11]; 1 nM): 97.4%; cell viability (Caco-2 [11]; 10 nM): 94.6%; cell viability (Caco-2 [11]; 100 nM): 89.3%; cell viability (Caco-2 [11]; 1000 nM): 75.3%; cell viability (Caco-2 [11]; 10000 nM): 65.6%; cell viability (Vero E6 [12]; 1 nM): 94.5%; cell viability (Vero E6 [12]; 10 nM): 98.5%; cell viability (Vero E6 [12]; 100 nM): 84.4%; cell viability (Vero E6 [12]; 1000 nM): 65.9%; cell viability (Vero E6 [12]; 10000 nM): 50.6%; cell viability (HepG2 [13]; 1 nM): 96.9%; cell viability (HepG2 [13]; 10 nM): 89.3%; cell viability (HepG2 [13]; 100 nM): 84.2%; cell viability (HepG2 [13]; 1000 nM): 31.6%; cell viability (HepG2 [13]; 10000 nM): 19.4%

With `CC(COc1ccccc1)NC(C)C(O)c1ccc(O)cc1` (centres undefined) [isoxsuprine] as the molecule, how does the drug sensitivity score (Calu-3 [1]) read?
The drug sensitivity score was 0.

And the drug sensitivity score (Vero E6 [3])?
Its drug sensitivity score is 0.

And the drug sensitivity score (HepG2 [4])?
Its drug sensitivity score is 0.

Which “relative viability EC50” value (U2OS [5]) does the source give for `CC(C)[C@@H](C(=O)Nc1nccs1)c1ccc(Cl)cc1` [4-CMTB] here?
Its value is > 10 µM.

And the “relative viability EC50” value (Vero E6 [6])?
The value was > 10 µM.

What about the drug sensitivity score (Calu-3 [1]) of the same molecule?
Its drug sensitivity score is 1.8.

What about the drug sensitivity score (U2OS [2]) of the same molecule?
The drug sensitivity score was 0.1.

What about the drug sensitivity score (Vero E6 [3]) of the same molecule?
Its drug sensitivity score is 0.

What about the drug sensitivity score (HepG2 [4]) of the same molecule?
The drug sensitivity score was 1.8.

What about the cell viability (Calu-3 [9]; 1 nM) of the same molecule?
The cell viability was 111%.

And the cell viability (Calu-3 [9]; 10 nM)?
The cell viability was 107%.

And the cell viability (Calu-3 [9]; 100 nM)?
The cell viability was 102%.

What about the cell viability (Calu-3 [9]; 1000 nM) of the same molecule?
The cell viability was 97.8%.

What about the cell viability (Calu-3 [9]; 10000 nM) of the same molecule?
Its cell viability is 68.1%.

And the cell viability (U2OS [10]; 1 nM)?
The cell viability was 104%.

And the cell viability (U2OS [10]; 10 nM)?
Its cell viability is 108%.

And the cell viability (U2OS [10]; 100 nM)?
The cell viability was 106%.

What about the cell viability (U2OS [10]; 1000 nM) of the same molecule?
The cell viability was 102%.

What about the cell viability (U2OS [10]; 10000 nM) of the same molecule?
Its cell viability is 85.5%.

And the cell viability (Vero E6 [12]; 1 nM)?
The cell viability was 107%.

What about the cell viability (Vero E6 [12]; 10 nM) of the same molecule?
The cell viability was 107%.

And the cell viability (Vero E6 [12]; 100 nM)?
The cell viability was 98%.

And the cell viability (Vero E6 [12]; 1000 nM)?
Its cell viability is 96.4%.

And the cell viability (Vero E6 [12]; 10000 nM)?
The cell viability was 92.9%.

What about the cell viability (HepG2 [13]; 1 nM) of the same molecule?
Its cell viability is 95.7%.

What about the cell viability (HepG2 [13]; 10 nM) of the same molecule?
The cell viability was 95.4%.

And the cell viability (HepG2 [13]; 100 nM)?
The cell viability was 94.1%.

What about the cell viability (HepG2 [13]; 1000 nM) of the same molecule?
The cell viability was 99.7%.

What about the cell viability (HepG2 [13]; 10000 nM) of the same molecule?
Its cell viability is 63.3%.

How did the “relative viability EC50” value (U2OS [5]) turn out when `Oc1ccc(CC2NCCc3cc(O)c(O)cc32)cc1` (centres undefined) [higenamine] was run?
The value was 2.95 µM.

And the “relative viability EC50” value (Vero E6 [6])?
The value was 3.22 µM.

And the “relative viability EC50” value (HepG2 [7])?
The value was 1.56 µM.

What about the drug sensitivity score (U2OS [2]) of the same molecule?
The drug sensitivity score was 3.7.

What about the drug sensitivity score (Caco-2 [8]) of the same molecule?
The drug sensitivity score was 3.5.

And the drug sensitivity score (Vero E6 [3])?
The drug sensitivity score was 2.7.

What about the drug sensitivity score (HepG2 [4]) of the same molecule?
Its drug sensitivity score is 6.3.

What about the cell viability (U2OS [10]; 1 nM) of the same molecule?
Its cell viability is 98.1%.

What about the cell viability (U2OS [10]; 10 nM) of the same molecule?
The cell viability was 103%.

What about the cell viability (U2OS [10]; 100 nM) of the same molecule?
The cell viability was 97.5%.

And the cell viability (U2OS [10]; 1000 nM)?
Its cell viability is 98.1%.

What about the cell viability (U2OS [10]; 10000 nM) of the same molecule?
Its cell viability is 36.6%.

What about the cell viability (Caco-2 [11]; 1 nM) of the same molecule?
The cell viability was 97.6%.

What about the cell viability (Caco-2 [11]; 10 nM) of the same molecule?
The cell viability was 102%.

And the cell viability (Caco-2 [11]; 100 nM)?
Its cell viability is 94.9%.

What about the cell viability (Caco-2 [11]; 1000 nM) of the same molecule?
The cell viability was 86.2%.

And the cell viability (Caco-2 [11]; 10000 nM)?
Its cell viability is 59.4%.

What about the cell viability (Vero E6 [12]; 1 nM) of the same molecule?
The cell viability was 104%.

And the cell viability (Vero E6 [12]; 10 nM)?
The cell viability was 99.2%.

And the cell viability (Vero E6 [12]; 100 nM)?
Its cell viability is 102%.

And the cell viability (Vero E6 [12]; 1000 nM)?
Its cell viability is 100%.

And the cell viability (Vero E6 [12]; 10000 nM)?
The cell viability was 48.6%.

And the cell viability (HepG2 [13]; 1 nM)?
The cell viability was 105%.

And the cell viability (HepG2 [13]; 10 nM)?
Its cell viability is 97.1%.

What about the cell viability (HepG2 [13]; 100 nM) of the same molecule?
The cell viability was 99.3%.

What about the cell viability (HepG2 [13]; 1000 nM) of the same molecule?
The cell viability was 83.3%.

What about the cell viability (HepG2 [13]; 10000 nM) of the same molecule?
The cell viability was 32.6%.

`O=c1oc2ccccc2c(O)c1Cc1c(O)c2ccccc2oc1=O` [dicoumarol] was tested. Which drug sensitivity score (Calu-3 [1]) did it give?
The drug sensitivity score was 0.

What about the drug sensitivity score (U2OS [2]) of the same molecule?
The drug sensitivity score was 0.

What about the drug sensitivity score (Vero E6 [3]) of the same molecule?
The drug sensitivity score was 0.

For `CCOC(=O)OC(C)OC1=C(C(=O)Nc2ccccn2)N(C)S(=O)(=O)c2ccccc21` (centres undefined) [ampiroxicam], which “relative viability EC50” value (U2OS [5]) is on record?
The value was > 10 µM.

And the “relative viability EC50” value (Caco-2 [14])?
Its value is > 10 µM.

And the “relative viability EC50” value (HepG2 [7])?
The value was > 10 µM.

What about the drug sensitivity score (U2OS [2]) of the same molecule?
Its drug sensitivity score is 0.

What about the drug sensitivity score (Caco-2 [8]) of the same molecule?
Its drug sensitivity score is 0.

And the drug sensitivity score (HepG2 [4])?
The drug sensitivity score was 0.

What about the cell viability (U2OS [10]; 1 nM) of the same molecule?
Its cell viability is 97.2%.

And the cell viability (U2OS [10]; 10 nM)?
The cell viability was 102%.

And the cell viability (U2OS [10]; 100 nM)?
The cell viability was 93.9%.

What about the cell viability (U2OS [10]; 1000 nM) of the same molecule?
Its cell viability is 98%.

What about the cell viability (U2OS [10]; 10000 nM) of the same molecule?
The cell viability was 95%.

And the cell viability (Caco-2 [11]; 1 nM)?
The cell viability was 94.6%.

What about the cell viability (Caco-2 [11]; 10 nM) of the same molecule?
Its cell viability is 99.9%.

And the cell viability (Caco-2 [11]; 100 nM)?
Its cell viability is 86.5%.

And the cell viability (Caco-2 [11]; 1000 nM)?
Its cell viability is 96.9%.

What about the cell viability (Caco-2 [11]; 10000 nM) of the same molecule?
Its cell viability is 97.3%.

What about the cell viability (HepG2 [13]; 1 nM) of the same molecule?
The cell viability was 91.9%.

And the cell viability (HepG2 [13]; 10 nM)?
Its cell viability is 102%.

And the cell viability (HepG2 [13]; 100 nM)?
The cell viability was 101%.

What about the cell viability (HepG2 [13]; 1000 nM) of the same molecule?
Its cell viability is 101%.

What about the cell viability (HepG2 [13]; 10000 nM) of the same molecule?
The cell viability was 103%.

For `CCCc1cc(=O)[nH]c(=S)[nH]1` [propylthiouracil], which drug sensitivity score (Calu-3 [1]) is on record?
Its drug sensitivity score is 0.

And the drug sensitivity score (U2OS [2])?
Its drug sensitivity score is 0.

And the drug sensitivity score (Vero E6 [3])?
The drug sensitivity score was 0.

For `Nc1ccc(C(=O)Oc2ccccc2)c(O)c1` [phenyl-aminosalicylate], which drug sensitivity score (Calu-3 [1]) is on record?
The drug sensitivity score was 0.

And the drug sensitivity score (U2OS [2])?
Its drug sensitivity score is 0.

What about the drug sensitivity score (Vero E6 [3]) of the same molecule?
Its drug sensitivity score is 0.

What about the drug sensitivity score (HepG2 [4]) of the same molecule?
Its drug sensitivity score is 1.

Which drug sensitivity score (Calu-3 [1]) does the source give for `O=c1c(-c2ccc(O)cc2)coc2cc(O)ccc12` [daidzein] here?
Its drug sensitivity score is 0.

And the drug sensitivity score (U2OS [2])?
Its drug sensitivity score is 0.

And the drug sensitivity score (Vero E6 [3])?
The drug sensitivity score was 0.

And the drug sensitivity score (HepG2 [4])?
Its drug sensitivity score is 0.

— the supplement of paper PMC13380429
